These results are taken from patent US20250136607A1 (REGOR PHARMACEUTICALS, INC., priority 2021, published 2025).

Like-named read-outs stand apart in the source and are kept apart here.

For the test, the target named is Protein arginine deiminase 4 (PAD4) (Homo sapiens, UniProt Q9UM07). Kind of test: PAD4 ammonia release assay. The format is biochemical. As for the experimental part:
1) Compound preparation: The compounds were diluted to 80× final concentrations. 2) The compounds were transferred to a 384-well assay plate by Tecan. DMSO: 1.25%. 3) Preparation of 1×Assay buffer: 100 mM HEPES, PH=8.0, 2 mM CaCl2, 50 mM NaCl, 0.1 mM TCEP, 0.6 mg/ml BSA. 4) 2× enzyme working solution (PAD4:20 nM) was prepared with assay buffer, and 10 μL of the obtained working solution were added to the 384-well assay plates. 5) The plate was centrifuged at 1000 rpm for 1 min. 6) After the centrifuge, the plate was incubated at RT for 15 min. 7) 2×BAEE substrate mix (600 μM) was prepared with assay buffer and 10 μL of the obtained substrate mix were added to each well. 8) The plate was centrifuged at 1000 rpm for 1 min and then incubated at RT for 60 min. 9) 1.5× detection mix (DTT:4 mM, OPA:3 mM, EDTA: 30 mM) was prepared, and 10 μL of the mix were added to the plate. 10) The plate was centrifuged at 1000 rpm for 1 min and then incubated at RT for 120 min. 11) The 384-well plates were placed into the Envision (PerkinElmer) and the assay data were collected.
The percent (%) inhibition at each concentration of compound was calculated based on and relative to the signal in the HPE (50 μM ref. compound) and ZPE (1.25% DMSO) wells included within each assay plate. The HPE worked as 100% inhibition, and the ZPE worked as 0% inhibition. The concentrations and % inhibition values for tested compounds were plotted and the concentration of compound required for 50% inhibition (IC50) was determined with a Four-parameter logistic dose response equation. The endpoint value (IC50) for the reference compound was evaluated in each experiment as a quality control measure. If the endpoint value is within 3-fold of the expected value, then the experiment quality is deemed as acceptable. The results are provided in Table 1 below. ≤0.1 μM=“++++”; >0.1 and ≤0.5 μM=“+++”; >0.5 and ≤5.0 μM=“++”; >5.0 μM=“+”. “−”=not available.

[1] abbreviates: PAD4 ammonia release assay, BAEE substrate, 60 min at RT, read-out: Average IC50 Abs.

Sequence of Protein arginine deiminase 4 (PAD4) (Q9UM07 whole entry): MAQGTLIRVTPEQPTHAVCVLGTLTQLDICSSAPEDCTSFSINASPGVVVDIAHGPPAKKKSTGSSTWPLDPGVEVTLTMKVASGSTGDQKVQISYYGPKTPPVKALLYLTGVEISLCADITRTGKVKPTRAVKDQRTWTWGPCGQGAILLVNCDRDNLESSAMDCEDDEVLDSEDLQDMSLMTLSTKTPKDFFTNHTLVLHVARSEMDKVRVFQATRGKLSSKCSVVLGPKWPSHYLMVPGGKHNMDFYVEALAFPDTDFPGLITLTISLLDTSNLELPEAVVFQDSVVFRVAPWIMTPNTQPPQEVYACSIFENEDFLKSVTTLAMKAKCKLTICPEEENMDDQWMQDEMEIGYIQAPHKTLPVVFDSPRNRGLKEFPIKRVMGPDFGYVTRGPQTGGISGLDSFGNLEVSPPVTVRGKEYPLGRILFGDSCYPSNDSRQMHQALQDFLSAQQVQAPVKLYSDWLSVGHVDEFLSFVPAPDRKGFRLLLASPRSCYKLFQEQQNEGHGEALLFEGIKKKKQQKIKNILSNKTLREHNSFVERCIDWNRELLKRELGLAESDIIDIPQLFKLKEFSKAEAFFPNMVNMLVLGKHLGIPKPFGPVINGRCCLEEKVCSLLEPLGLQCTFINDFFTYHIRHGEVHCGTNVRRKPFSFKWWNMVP

Regarding `CC[C@H]1CN(CCCO)c2cccc3cc(-c4nc5cc(C(=O)N6C[C@H]7CC[C@@H]6[C@@H]7N)cc(F)c5n4CC)n1c23` [Example 98, ((1R,4R,7R)-7-amino-2-azabicyclo[2.2.1]heptan-2-yl)(1-ethyl-2-((S)-3-ethyl-1-(3-hydroxypropyl)-2,3-dihydro-1H-pyrrolo[1,2,3-de]quinoxalin-5-yl)-7-fluoro-1H-benzo[d]imidazol-5-yl)methanone], the IC50 under setting [1] was at most 100 nM. Where the note is “SFC-separated stereoisomer pairs”, the “relative potency of separated isomers in the PAD4 biochemical assay” value was “more potent than Example 97”.

Regarding `COc1cc(C(=O)N2C[C@@H](N)C3(CC3)C2)cc2nc(-c3cc4cccc5c4n3CCN5CCCO)n(CC3CC3)c12` [Example 61, (S)-(7-amino-5-azaspiro[2.4]heptan-5-yl)(1-(cyclopropylmethyl)-2-(1-(3-hydroxypropyl)-2,3-dihydro-1H-pyrrolo[1,2,3-de]quinoxalin-5-yl)-7-methoxy-1H-benzo[d]imidazol-5-yl)methanone], the IC50 under setting [1] is above 5000 nM.

With `CC[C@H]1[C@H](C)Nc2cccc3cc(-c4nc5cc(C(=O)N6C[C@H]7CC[C@@H]6[C@@H]7N)cc(F)c5n4C)n1c23` [Example 134, trans-((1R,4R,7R)-7-amino-2-azabicyclo[2.2.1]heptan-2-yl)(2-(3-ethyl-2-methyl-2,3-dihydro-1H-pyrrolo[1,2,3-de]quinoxalin-5-yl)-7-fluoro-1-methyl-1H-benzo[d]imidazol-5-yl)methanone], the IC50 under setting [1] is above 5000 nM.

On to `CCn1cc(Cn2c(-c3cc4cccc5c4n3CCN5CCCOC)nc3cc(C(=O)N4C[C@H](N)C[C@@H](F)C4)cc(F)c32)cn1` [Example 41, ((3R,5R)-3-amino-5-fluoropiperidin-1-yl)(1-((1-ethyl-1H-pyrazol-4-yl)methyl)-7-fluoro-2-(1-(3-methoxypropyl)-2,3-dihydro-1H-pyrrolo[1,2,3-de]quinoxalin-5-yl)-1H-benzo[d]imidazol-5-yl)methanone], for which the half-maximal inhibitory concentration (IC50) under setting [1] lay within 100 to 500 nM.

On to `COc1cc(C(=O)N2C[C@H]3CC[C@@H]2[C@@H]3N)cc2nc(-c3cc4cccc5c4n3CCN5CCO)n(C)c12` [Example 11, ((1R,4R,7R)-7-amino-2-azabicyclo[2.2.1]heptan-2-yl)(2-(1-(2-hydroxyethyl)-2,3-dihydro-1H-pyrrolo[1,2,3-de]quinoxalin-5-yl)-7-methoxy-1-methyl-1H-benzo[d]imidazol-5-yl)methanone], for which the IC50 under setting [1] was 500 to 5000 nM.

Consider `Cn1c(-c2cc3cccc4c3n2CCN4)nc2cc(C(=O)N3C[C@H]4CC[C@@H]3[C@@H]4N)ccc21` [Example 168, ((1R,4R,7R)-7-amino-2-azabicyclo[2.2.1]heptan-2-yl)(2-(2,3-dihydro-1H-pyrrolo[1,2,3-de]quinoxalin-5-yl)-1-methyl-1H-benzo[d]imidazol-5-yl)methanone], for which the half-maximal inhibitory concentration (IC50) is 2310 nM (PAD4 activity comparison, read-out: PAD4 Ammonia assay IC50) and 500 to 5000 nM under setting [1].

Regarding `Cn1c(-c2cc3cc(C#N)cc4c3n2[C@H](C2CC2)CN4)nc2cc(C(=O)N3C[C@H]4CC[C@@H]3[C@@H]4N)cc(F)c21` [Example 117, (R)-5-(5-((1R,4R,7R)-7-amino-2-azabicyclo[2.2.1]heptane-2-carbonyl)-7-fluoro-1-methyl-1H-benzo[d]imidazol-2-yl)-3-cyclopropyl-2,3-dihydro-1H-pyrrolo[1,2,3-de]quinoxaline-8-carbonitrile], under setting [1], the IC50 is above 5000 nM.

On to `Cn1c(-c2cc3cc(C#N)cc4c3n2[C@@H](C2CC2)CN4)nc2cc(C(=O)N3C[C@H]4CC[C@@H]3[C@@H]4N)cc(F)c21` [Example 118, (S)-5-(5-((1R,4R,7R)-7-amino-2-azabicyclo[2.2.1]heptane-2-carbonyl)-7-fluoro-1-methyl-1H-benzo[d]imidazol-2-yl)-3-cyclopropyl-2,3-dihydro-1H-pyrrolo[1,2,3-de]quinoxaline-8-carbonitrile], for which the IC50 under setting [1] was in the range of 100 to 500 nM.

`CCC1C(=O)Nc2c(C#N)ccc3cc(-c4nc5cc(C(=O)N6C[C@H]7CC[C@@H]6[C@@H]7N)cc(F)c5n4C)n1c23` (stereo partly drawn) [Example 127, 5-(5-((1R,4R,7R)-7-amino-2-azabicyclo[2.2.1]heptane-2-carbonyl)-7-fluoro-1-methyl-1H-benzo[d]imidazol-2-yl)-3-ethyl-2-oxo-2,3-dihydro-1H-pyrrolo[1,2,3-de]quinoxaline-9-carbonitrile]: the 50% inhibitory concentration (IC50) under setting [1] was in the range of 500 to 5000 nM.

`Cn1c(-c2cc3cccc4c3n2C(C2CC2)CN4)nc2cc(C(=O)N3C[C@H]4CC[C@@H]3[C@@H]4N)cc(F)c21` (mixture of isomers) [Example 108, ((1R,4R,7R)-7-amino-2-azabicyclo[2.2.1]heptan-2-yl)(2-(3-cyclopropyl-2,3-dihydro-1H-pyrrolo[1,2,3-de]quinoxalin-5-yl)-7-fluoro-1-methyl-1H-benzo[d]imidazol-5-yl)methanone]: under setting [1], the IC50 was at most 100 nM.

Regarding `COc1cc(C(=O)N2CCC[C@@H](N)C2)cc2nc(-c3cc4cccc5c4n3CC(=O)N5)n(C)c12` [Example 9, (R)-5-(5-(3-aminopiperidine-1-carbonyl)-7-methoxy-1-methyl-1H-benzo[d]imidazol-2-yl)-1H-pyrrolo[1,2,3-de]quinoxalin-2(3H)-one], under setting [1], the half-maximal inhibitory concentration (IC50) was above 5000 nM.

For `CC(C)[C@@H]1CNc2cccc3cc(-c4nc5cc(C(=O)N6C[C@H]7CC[C@@H]6[C@@H]7N)cc(F)c5n4C)n1c23` [Example 105, ((1R,4R,7R)-7-amino-2-azabicyclo[2.2.1]heptan-2-yl)(7-fluoro-2-((R)-3-isopropyl-2,3-dihydro-1H-pyrrolo[1,2,3-de]quinoxalin-5-yl)-1-methyl-1H-benzo[d]imidazol-5-yl)methanone], the IC50 under setting [1] was in the range of 500 to 5000 nM.

Turning to `COc1cc(C(=O)N2CC3CNC3C2)cc2nc(-c3cc4cccc5c4n3CCN5CCCO)n(CC3CC3)c12` (stereo not drawn) [Example 53, (3,6-diazabicyclo[3.2.0]heptan-3-yl)(1-(cyclopropylmethyl)-2-(1-(3-hydroxypropyl)-2,3-dihydro-1H-pyrrolo[1,2,3-de]quinoxalin-5-yl)-7-methoxy-1H-benzo[d]imidazol-5-yl)methanone], the IC50 under setting [1] is above 5000 nM.

Take `Cn1c(-c2cc3c(C#N)ccc4c3n2[C@H](C2CC2)CN4)nc2cc(C(=O)N3C[C@H]4CC[C@@H]3[C@@H]4N)cc(F)c21` [Example 119, (R)-5-(5-((1R,4R,7R)-7-amino-2-azabicyclo[2.2.1]heptane-2-carbonyl)-7-fluoro-1-methyl-1H-benzo[d]imidazol-2-yl)-3-cyclopropyl-2,3-dihydro-1H-pyrrolo[1,2,3-de]quinoxaline-7-carbonitrile]: under setting [1], the half-inhibitory concentration (IC50) was above 5000 nM.

On to `CC[C@@H]1[C@H](C)Nc2cccc3cc(-c4nc5cc(C(=O)N6C[C@H]7CC[C@@H]6[C@@H]7N)cc(F)c5n4C)n1c23` (single isomer, unassigned) [Example 133], for which the concentration for half-maximal inhibition (IC50) under setting [1] is above 5000 nM.

For `Cn1c(-c2cc3ccc4c(c3n2CC2CC2)NC(=O)C4(C)C)nc2cc(C(=O)N3C[C@H]4CC[C@@H]3[C@@H]4N)cc(F)c21` [Example 141, 7-(5-((1R,4R,7R)-7-amino-2-azabicyclo[2.2.1]heptane-2-carbonyl)-7-fluoro-1-methyl-1H-benzo[d]imidazol-2-yl)-8-(cyclopropylmethyl)-3,3-dimethyl-3,8-dihydropyrrolo[3,2-g]indol-2(1H)-one], the IC50 under setting [1] fell in the range of 500 to 5000 nM.

Usually IC50 stands for the midpoint of a concentration-inhibition curve.
